Each structure is given as a SMILES string.

A word on the logP: it is the decadic logarithm of the partition coefficient of the neutral form, usually between octanol and water. Read a high logP as higher lipophilicity. Broadly, the logD is lipophilicity at a set pH, counting ionised and neutral species. The term Papp denotes a coefficient for how fast a substance crosses the barrier. As a reminder, the EC50 is the concentration that produces a half-maximal response. Low values mean an effect from little substance, high ones a need for much substance.

Series [1] can be described thus: physchem. The class given is physicochemical.
A short description of series [2]: physchem. The conditions noted are these: pH 7.4. Type of series: physicochemical.
Series [3] can be described thus: in vitro. Type of series: in vitro ADME. The following applies: PAMPA. As for the experimental part: To assess this hypothesis, we conducted the parallel artificial membrane permeability assay (PAMPA) for simulating passive transcellular permeation.[41]
Supplemental Experimental Procedures
In vitro Parallel Artificial Membrane Permeability Assay (PAMPA) […]
evaluated using Parallel Artificial Membrane Permeability Assay Kit (PAMPA-096). Each prodrug and the supplied permeability controls were dissolved in DMSO at the concentration of 10 mM. Then 25 μL of each prodrug solution was mixed with 475 μL of 50 mM sodium phosphate buffer (pH 6.5) to be used as the test solution. GOC/HPMCP and OSC-GCDI/HPCMP particles are dissolved in 50 mM sodium phosphate buffer (5% DMSO, pH 6.5) to achieve a final concentration of 200 µM. In the acceptor plate, 300 μL of 50 mM sodium phosphate buffer (pH 7.4) was added. Subsequently, before adding 200 μL of each test solution to the donor plate, 5 μL of 4% lecithin in dodecane was directly applied to the well membrane of the donor plate. Donor plate was carefully placed into acceptor plate and incubate at r.t. for 16 – 24 h. Donor plate was removed and each solution was collected and filtered by a PVDF filter (0.20 μm pore size). The total prodrug concentration in each plate was determined by HPLC analysis.
In the case of OSC-GCDI(P), partial degradation occurred due to the instability of OSC-GCDI(P) in the buffer. Therefore, the collected solution was further incubated in a 1 M KOH solution for complete hydrolysis. Then, the concentration of GOC was quantified instead.
Background: The PAMPA barrier holds no transporters, so it reflects passive diffusion.

The nature of series [4]: Stability of OSC-GCDIs in phosphate buffers. The following applies: for half-life at 100 μM: sodium phosphate buffer, read-out: T1/2. Type of series: physicochemical.
Series [5] is described as follows: Stability of OSC-GCDIs and GOC release in BALB/c serum. The class given is in vitro ADME. The following applies: mouse; for GOC released: 200 μM. On the procedure: (§1) Stability of OSC-GCDIs in serum
Stability of the GCDI prodrugs were examined by incubating prodrugs in human and BALB/c serum at 37 °C and 200 μM final concentration. Briefly, each prodrug was dissolved in DMSO to be 20 mM concentration, then 10 μL of each prodrug solution was mixed with 990 μL of serum. At different time intervals, 100 μL of the samples were taken and mixed with 100 μL of MeCN. Samples were centrifuged at 14,000 rpm for 10 min at 4 °C and the supernatant was immediately frozen (−80 °C). After thawing and shaking, the samples were filtered using a polytetrafluoroethylene (PTFE) filter (0.20 μm pore size) […]
Release profiles of GOC from the OSC -GCDI prodrugs conjugated to human serum albumin OSC-GCDIs were dissolved in Dulbecco ’s Phosphate-Buffered Saline (DPBS) containing HSA (20 mg/mL) to be concentration of 1 mM, then the mixture was shaken for 10 min at 37 °C. Unbound OSC-GCDIs were removed by washing twice with DPBS using Vivaspin 500 ultrafiltration units (10 kDa cutoff).
Following centrifugation, the samples were redissolved in 1 mL DPBS. Before incubation at 37 °C, 50 µL sample was taken and mixed with 50 µL of 1 M KOH in m ethanol solution to completely hydrolyze the conjugates and determine the initial drug concentration bound to HSA. Subsequently, the samples were incubated at 37 °C and after 1, 2, 4, 24, and 72 h incubation, 50 µL of the samples were taken and mixed with 50 µL MeCN. Then, the concentration of the released GOC was quantified by HPLC. […]

Series [6] is described as follows: Stability of OSC-GCDIs in human serum. The class given is in vitro ADME. The conditions noted are these: 200 μM prodrug, 37 °C. As for the experimental part: as §1
Stability of the GCDI prodrugs were examined by incubating prodrugs in human and BALB/c serum at 37 °C and 200 μM final concentration. Briefly, each prodrug was dissolved in DMSO to be 20 mM concentration, then 10 μL of each prodrug solution was mixed with 990 μL of serum. At different time intervals, 100 μL of the samples were taken and mixed with 100 μL of MeCN. Samples were centrifuged at 14,000 rpm for 10 min at 4 °C and the supernatant was immediately frozen (−80 °C). After thawing

Series [7] is described as follows: In vitro microsomal stability. Type of series: in vitro ADME, rat. On the procedure: In vitro microsomal stability
Sprague Dawley rat microsomes were obtained from GibcoTM. NADPH was purchased from Sigma-Aldrich (Munich, Germany). Liver microsomes at 0.5 mg/mL concentration (final volume of 200 μL) were incubated in phosphate buffer (pH 7.4), containing 3 mM MgCl2. OSC-GCDI prodrug was dissolved in DMSO to be 40 mM concentration, then each prodrug solution was mixed with prepared buffer to achieve a final concentration of 100 μM (0.25% DMSO). Test compounds were incubated at 37 °C and started by the addition of the 1mM NADPH as cofactor. The samples were taken at 0, 30, 60, and 90 min. The reaction was terminated by addition of ice-cold acetonitrile/methanol (1:1, v/v). After collection, samples were centrifuged (10 min, 16,000 rpm), then the centrifuged supernatant was directly analyzed by using HPLC analysis. Metabolic half-time (t1/2) was calculated by using the equation of first order

For series [8], the target named is human serum albumin (HSA) (Homo sapiens, UniProt P02768). The series can be described thus: Albumin binding of OSC-GCDIs (MALDI-TOF MS). The following applies: MALDI-TOF MS of trypsin-digested HSA. On the procedure:
Albumin binding of OSC-GCDIs
OSC-GCDI(P) (0.2 mg/mL or 10 mg/mL) was mixed with HSA (1 mg/mL) in 50 mM Tris -HCl buffer (pH 6.8). The sample was shaken for 20 min at room temperature. Unbound OSC-GCDI(P) was removed by washing three times with distilled water (DW) using Vivaspin 500 ultrafiltration units (10 kDa cutoff).
Following centrifugation, the HSA samples were placed in the condition of 8 M urea, 50 mM Tris-HCl (pH 6.8), and 5 mM DTT at 37 °C for 60 min. Then, 50 mM Tris-HCl (pH 6.8) was added until the urea concentration was less than 1 M. Trypsin Gold was then added to achieve a final protease-to-protein ratio of 1:20 (w/w). The sample was incubated at 37 °C for 60 min. The mass-to-charge ratio of the digested sample was measured by MALDI-TOF (Matrix -Assisted Laser Desorption/Ionization Time -of-Flight) MS using α-cyano-4-hydroxycinnamic acid as the matrix. […]

The conditions of series [9]: mice, oral, non-formulated prodrug.
Series [10] in a line: in vitro. The following applies: dog.
Series [11] has as its system A/Puerto Rico/8/1934 (PR8; H1N1). Kind of series: microbe, parasite or virus in culture. The conditions noted are these: Influenza A virus, MDCK.
Series [12] concerns A/Hong Kong/8/1968 (HK; H3N2). Kind of series: microbe, parasite or virus in culture. The following applies: Influenza A virus, H3N2, MDCK.
A further series relates to B/Lee/1940 (Lee). Kind of series: microbe, parasite or virus in culture. The following applies: Influenza B virus, MDCK.

Chain of human serum albumin (HSA) (P02768 25-609): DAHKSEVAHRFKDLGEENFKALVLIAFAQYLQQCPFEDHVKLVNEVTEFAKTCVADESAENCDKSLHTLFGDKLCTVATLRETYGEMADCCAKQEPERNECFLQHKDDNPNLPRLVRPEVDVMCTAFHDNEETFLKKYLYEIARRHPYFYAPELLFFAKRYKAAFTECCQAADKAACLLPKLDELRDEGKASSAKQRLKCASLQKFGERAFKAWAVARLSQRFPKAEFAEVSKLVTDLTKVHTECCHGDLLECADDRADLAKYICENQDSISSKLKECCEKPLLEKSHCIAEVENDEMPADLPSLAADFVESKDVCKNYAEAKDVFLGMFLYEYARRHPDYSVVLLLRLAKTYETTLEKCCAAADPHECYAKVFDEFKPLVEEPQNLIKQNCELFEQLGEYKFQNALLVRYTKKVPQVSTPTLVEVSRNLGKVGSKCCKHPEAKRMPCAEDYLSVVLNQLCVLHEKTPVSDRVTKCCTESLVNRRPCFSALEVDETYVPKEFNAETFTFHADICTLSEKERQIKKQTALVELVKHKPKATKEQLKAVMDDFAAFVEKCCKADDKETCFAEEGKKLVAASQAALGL

`CCC(CC)O[C@@H]1C=C(C(=O)O)C[C@H](N=C(N2C(=O)c3ccccc3C2=O)N2C(=O)c3ccccc3C2=O)[C@H]1NC(C)=O` [OSC-GCDI(P)] returned a logP in the series “physchem [1]” of 1.61. In “physchem [2]”, this molecule yielded a logD of 1.01. The same molecule registered a Papp at 500 μM in “in vitro [3]” of 3.88 ± 0.31 ×10⁻⁶ cm/s. For the same molecule, the “Effective permeability Pe” value in the series “in vitro [3]” (500 μM) was 3.07 ×10⁻⁶ cm/s. Moreover, the T1/2 is reported as 93.7 min in [4] (phosphate buffer pH 2.0, 37 °C) and 87.7 min in [4] (phosphate buffer pH 6.5, 37 °C). The half-life at 100 μM is 94 min in [4] (pH 2, phosphate buffer pH 2.0, 37 °C); 88 min in [4] (pH 6.5, phosphate buffer pH 6.5, 37 °C); 14.1 min in [4] (pH 7.4, phosphate buffer pH 7.4, 37 °C); under 1 min in series [4] (pH 8, phosphate buffer pH 8.0, 37 °C); 17.7 min in series [7] (Sprague Dawley, liver microsomes, pH 7.4, rat liver microsome, 100 μM, 37 °C). Further, the GOC released came out at 37% in [5] (BALB/c, 30 min) and 68% in series [5] (BALB/c, 24 h). Also, the half-life at 200 μM in series [5] (BALB/c, serum) turned out to be 1.3 min; in series [5] (BALB/c serum, 200 μM prodrug, 37 °C, read-out: T1/2), 1.3 min; in series [6], 1.3 min. The “CLint (intrinsic clearance)” value in series [7] (rat, microsomes) is 78.2. In addition, in series [8], the “covalent conjugation to HSA” value is on record as “covalent adducts”. Besides, the “plasma concentration of the prodrug” value in series [9] is recorded as “below detection limit”. In the series “in vitro [10]”, the CC50 at 3 days was over 100000 nM. In addition, the results for the EC50 (in series [11]; in series [12]; in the series with B/Lee/1940 (Lee)) were 30 ± 10 nM, 10 ± 10 nM and 2260 ± 400 nM, respectively.

For the origin of these results see paper PMC11363325, “A Novel Prodrug Strategy Based on Reversibly Degradable Guanidine Imides for High Oral Bioavailability and Prolonged Pharmacokinetics of Broad-Spectrum Anti-influenza Agents” (ACS Central Science, 2024).
